Assay results published in ChEMBL document CHEMBL2331354, “Spirocyclic replacements for the isatin in the highly selective, muscarinic M1 PAM ML137: the continued optimization of an MLPCN probe molecule” (Bioorg Med Chem Lett, 2013).
Activity calls are given as the source filed them. The calls are words filed in the database; no cut-off is given here.

Experiments:
[1] = target: T1, Muscarinic acetylcholine receptor M1 (Homo sapiens, UniProt P11229); test: Positive allosteric modulation of human muscarinic M1 receptor
T1 sequence (P11229 whole entry): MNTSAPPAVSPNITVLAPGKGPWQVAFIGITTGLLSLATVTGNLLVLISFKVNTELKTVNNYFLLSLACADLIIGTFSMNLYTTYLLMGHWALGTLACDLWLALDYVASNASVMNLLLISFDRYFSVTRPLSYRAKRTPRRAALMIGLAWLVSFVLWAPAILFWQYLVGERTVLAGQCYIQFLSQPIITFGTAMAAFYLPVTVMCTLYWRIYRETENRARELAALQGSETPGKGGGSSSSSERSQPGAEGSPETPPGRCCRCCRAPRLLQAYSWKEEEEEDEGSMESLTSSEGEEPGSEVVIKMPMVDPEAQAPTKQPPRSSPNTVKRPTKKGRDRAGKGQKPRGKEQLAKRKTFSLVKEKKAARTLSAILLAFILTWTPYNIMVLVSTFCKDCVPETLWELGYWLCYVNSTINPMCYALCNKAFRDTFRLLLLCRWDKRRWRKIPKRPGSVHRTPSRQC

[2] = target: T2, Muscarinic acetylcholine receptor M1 (Homo sapiens) (UniProt P11229); test: Positive allosteric modulation of human muscarinic M1 receptor relative to acetylcholine
T2 sequence (whole entry): T1 sequence (P11229 whole entry)

[3] = target: T2, Muscarinic acetylcholine receptor M1 (Homo sapiens); test: Positive allosteric modulation of human muscarinic M1 receptor assessed as leftward fold shift of acetylcholine-induced response at 30 uM relative to acetylcholine
[4] = target: T2, Muscarinic acetylcholine receptor M1 (Homo sapiens); test: Positive allosteric modulation of human muscarinic M1 receptor at 30 uM

| SMILES | Emax [2] | EC50 [1] | also measured |
| --- | --- | --- | --- |
| Cn1cc(-c2ccc(CN3C(=O)C(=O)c4ccccc43)c(F)c2)cn1 | 45% | – | pEC50 [1]: 6.22; fold change (FC) [3]: 2.7 |
| Cc1nn(C)cc1-c1ccc(CN2C(=O)C3(CCN(C4CCCC4)C3)c3ccccc32)c(F)c1 (stereo not drawn) | 41% | 3 µM | – |
| Cn1cc(-c2ccc(CN3C(=O)C4(CCN(C5CCCC5)C4)c4ccccc43)cc2F)cn1 (stereo not drawn) | 28% | 2 µM | – |
| Cn1cc(-c2cc(F)c(CN3C(=O)C4(CCN(C5CCCC5)C4)c4ccccc43)c(F)c2)cn1 (stereo not drawn) | 66% | 2.6 µM | – |
| Cn1cc(-c2ccc(CN3C(=O)C4(CCN(C5CCCC5)C4)c4ccccc43)c(F)c2F)cn1 (stereo not drawn) | 43% | > 10 µM | – |
| Cn1cc(-c2cc(F)c(CN3C(=O)C4(CCN(C5CCCC5)C4)c4ccccc43)cc2F)cn1 (stereo not drawn) | 51% | 4.1 µM | – |
| Cn1cc(-c2ccc(CN3C(=O)C4(CCN(C5CCCC5)C4)c4ccccc43)cc2)cn1 (stereo not drawn) | 44% | 1.8 µM | – |
| CN1CCC2(CCN(Cc3ccc(-c4cnn(C)c4)cc3F)C2=O)C1 (stereo not drawn) | 28% | > 10 µM | – |
| CN1CCC2(CC1)C(=O)N(Cc1ccc(-c3cnn(C)c3)cc1F)c1ccccc12 | 49% | 3.8 µM | – |
| Cn1cc(-c2ccc(CN3C(=O)C4(CCNCC4)c4ccccc43)c(F)c2)cn1 | 29% | > 10 µM | – |
| Cn1cc(-c2ccc(CN3C(=O)C4(OCCO4)c4ccccc43)c(F)c2)cn1 | 62% | 2 µM | fold change (FC) [3]: 27 |
| Cn1cc(-c2ccc(CN3CC4(OCCO4)c4ccccc43)c(F)c2)cn1 | 43% | > 10 µM | – |
| Cn1cc(-c2ccc(CN3C(=O)C4(CCCO4)c4ccccc43)cc2)cn1 (stereo not drawn) | 43% | > 10 µM | – |
| CN1CCCC12C(=O)N(Cc1ccc(-c3cnn(C)c3)cc1)c1ccccc12 (stereo not drawn) | 53% | > 10 µM | – |
| CN1CCCC12C(=O)N(Cc1ccc(Br)cc1)c1ccccc12 (stereo not drawn) | – | – | Activity [4]: inactive |
| C[Si](C)(C)C1COC2(C1)C(=O)N(Cc1ccc(Br)cc1)c1ccccc12 (stereo not drawn) | – | – | Activity [4]: inactive |
| Cc1c(-c2ccc(CN3C(=O)C4(CCN(C5CCCC5)C4)c4ccccc43)c(F)c2)cnn1C (stereo not drawn) | – | – | Activity [4]: inactive |
| Cc1nn(C)c(C)c1-c1ccc(CN2C(=O)C3(CCN(C4CCCC4)C3)c3ccccc32)c(F)c1 (stereo not drawn) | – | – | Activity [4]: inactive |
| Cn1cc(-c2ccc(CN3C(=O)C4(CCN(C5CCCC5)C4)c4ccccc43)c(F)c2)c(C(F)(F)F)n1 (stereo not drawn) | – | – | Activity [4]: inactive |
| Cn1cc(-c2ccc(CN3C(=O)C4(CCNC4)c4ccccc43)c(F)c2)cn1 (stereo not drawn) | – | – | Activity [4]: inactive |
| O=C1N(Cc2ccc(Br)cc2)c2ccccc2C12CCCN2 (stereo not drawn) | – | – | Activity [4]: inactive |
| O=C1N(Cc2ccc(Br)cc2)c2ccccc2C12CCCO2 (stereo not drawn) | – | – | Activity [4]: inactive |
| Cn1cc(-c2ccc(CN3C(=O)C4(CCN(c5ncccn5)C4)c4ccccc43)c(F)c2)cn1 (racemic) | 64% | 2.5 µM | fold change (FC) [3]: 17.4 |
| CCN1CCC2(C1)C(=O)N(Cc1ccc(-c3cnn(C)c3)cc1F)c1ccccc12 (racemic) | 59% | 3.2 µM | fold change (FC) [3]: 8.3 |

| SMILES | Emax [2] | EC50 [1] | also measured |
| --- | --- | --- | --- |
| Cn1cc(-c2ccc(CN3C(=O)C4(CCN(CCF)C4)c4ccccc43)c(F)c2)cn1 (racemic) | 60% | 4.1 µM | fold change (FC) [3]: 13.5 |
| Cn1cc(-c2ccc(CN3C(=O)C4(CCN(CC(F)F)C4)c4ccccc43)c(F)c2)cn1 (racemic) | 52% | > 10 µM | fold change (FC) [3]: 5.9 |
| CC(=O)N1CCC2(C1)C(=O)N(Cc1ccc(-c3cnn(C)c3)cc1F)c1ccccc12 (racemic) | 41% | > 10 µM | – |
| Cn1cc(-c2ccc(CN3C(=O)C4(CCN(C(=O)C5CCC5)C4)c4ccccc43)c(F)c2)cn1 (racemic) | 45% | 6.3 µM | – |
| Cn1cc(-c2ccc(CN3C(=O)C4(CCN(C(=O)C5CCCCC5)C4)c4ccccc43)c(F)c2)cn1 (racemic) | 50% | 5 µM | – |
| Cn1cc(-c2ccc(CN3C(=O)C4(CCN(S(C)(=O)=O)C4)c4ccccc43)c(F)c2)cn1 (racemic) | 41% | > 10 µM | – |
| Cn1cc(-c2ccc(CN3C(=O)C4(CCN(C5CCC5)C4)c4ccccc43)c(F)c2)cn1 (racemic) | 48% | > 10 µM | – |
| Cn1cc(-c2ccc(CN3C(=O)C4(CCN(C5CCCC5)C4)c4ccccc43)c(F)c2)cn1 (racemic) [listing 1 of 2 here] | – | 3.1 µM | – |
| Cn1cc(-c2ccc(CN3C(=O)C4(CCN(C5CCCCC5)C4)c4ccccc43)c(F)c2)cn1 (racemic) | 60% | 5.2 µM | – |
| Cn1cc(-c2ccc(CN3C(=O)C4(CCN(C5CCCCCC5)C4)c4ccccc43)c(F)c2)cn1 (racemic) | 50% | 7.5 µM | – |
| CC(C)N1CCC2(C1)C(=O)N(Cc1ccc(-c3cnn(C)c3)cc1F)c1ccccc12 (racemic) | 30% | > 10 µM | – |
| Cn1cc(-c2ccc(CN3C(=O)C4(CCN(C(=O)OC(C)(C)C)C4)c4ccccc43)c(F)c2)cn1 (racemic) | – | – | Activity [4]: inactive |
| Cn1cc(-c2ccc(CN3C(=O)C4(CCN(C5CCCC5)C4)c4ccccc43)c(F)c2)cn1 (racemic) [listing 2 of 2 here] | 57% | – | – |
| Cn1cc(-c2ccc(CN3C(=O)C4(CCN(CC(F)(F)F)C4)c4ccccc43)c(F)c2)cn1 (racemic) | – | – | Activity [4]: inactive |
| Cn1cc(-c2ccc(CN3C(=O)C4(CCN(c5ccccc5)C4)c4ccccc43)c(F)c2)cn1 (racemic) | – | – | Activity [4]: inactive |
| CN1CCC2(C1)C(=O)N(Cc1ccc(-c3cnn(C)c3)cc1F)c1ccccc12 (single isomer, unassigned) [listing 1 of 2 here] | – | 2.9 µM | – |
| CN1CCC2(C1)C(=O)N(Cc1ccc(-c3cnn(C)c3)cc1F)c1ccccc12 (single isomer, unassigned) [listing 2 of 2 here] | 50% | – | fold change (FC) [3]: 7.2 |
| Cn1cc(-c2ccc(CN3C(=O)C4(CCN(C5CCCC5)C4)c4ccccc43)c(F)c2)cn1 (single isomer, unassigned; 19g) [listing 1 of 2 here] | – | 1.6 µM | – |
| Cn1cc(-c2ccc(CN3C(=O)C4(CCN(C5CCCC5)C4)c4ccccc43)c(F)c2)cn1 (single isomer, unassigned; 19g) [listing 2 of 2 here] | 69% | – | fold change (FC) [3]: 28 |
| Cn1cc(-c2ccc(CN3C(=O)C4(CCN(C5CCCC5)C4)c4ccccc43)c(F)c2)cn1 (single isomer, unassigned; 19h) | 33% | – | – |
| CN1CCC2(C1)C(=O)N(Cc1ccc(-c3cnn(C)c3)cc1F)c1ccccc12 (stereo in doubt; 18d) [listing 1 of 2 here] | – | 3.2 µM | – |
| CN1CCC2(C1)C(=O)N(Cc1ccc(-c3cnn(C)c3)cc1F)c1ccccc12 (stereo in doubt; 18d) [listing 2 of 2 here] | 65% | – | – |
| CN1CCC2(C1)C(=O)N(Cc1ccc(-c3cnn(C)c3)cc1F)c1ccccc12 (stereo in doubt; 19a) [listing 1 of 2 here] | – | 2.9 µM | – |
| CN1CCC2(C1)C(=O)N(Cc1ccc(-c3cnn(C)c3)cc1F)c1ccccc12 (stereo in doubt; 19a) [listing 2 of 2 here] | 67% | – | fold change (FC) [3]: 21 |
